Like-named read-outs stand apart in the source and are kept apart here.
Target: T1, Human TREM2 (Homo sapiens, UniProt Q9NZC2)
T1 construct: expressed in transfected cells
Test: Human TREM2 activity: cellular phosphorylation of Syk (AlphaLISA SureFire Ultra p-SYK) in HEK293/DAP12+TREM2 stable cell line
Type: cell-based
Conditions: for Emax: maximal response relative to reference agonist example 1B (remaining examples); for EC50: phospho-Syk AlphaLISA signal, HEK293/DAP12+TREM2 cells, concentration giving 50% of maximal response, read-out: EC50
Source text: Human TREM2, in vitro Measurement of Triggering Receptor Expressed on Myeloid Cells 2 activity using cellular phosphorylation of Spleen Tyrosine Kinase (“Syk”) Assay
HEK-293 cells were co-transfected with separate plasmids encoding TREM2 and DAP12 to generate a stable cell line. After antibiotic selection, functional clone pool analysis and two successive limiting dilutions, the final clone “HEK293/DAP12+TREM2” underwent a qPCR analysis and a pharmacological validation.
TREM2 signaling through DAP12 was monitored in the HEK293/DAP12+TREM2 stable cell line by measuring the phosphorylation levels of the Syk kinase using the commercially available AlphaLISA SureFire Ultra p-SYK (Tyr525/526) Assay Kit (PerkinElmer #ALSU-PSYK), based on the Perkin Elmer AlphaScreen/AlphaLISA technology.
Compounds are transferred to the test plate and tested in full dose response, 8 concentrations in quadruplicate data points. Compound serial dilutions were performed at Cybi-Felix instrument in 100% DMSO and the dose response curves were assembled in automated fashion in 384MPT at Hamilton STARlet instrument. All the stock solutions were prepared at 20 mM in 100% DMSO. For compounds testing, the starting concentration was 100 μM, dilution steps 1:6. […] Finally, a 384MPT reformatted for all compounds at 8 concentrations, quadruplicates, was used as “mother to child” process with a CyBi®-Well dispenser in which 1 μL of each compound was moved into a destination plate pre-filled with 65.6 μL of EMEM cell culture medium (BIOWHITTAKER_cat.BE12-125F), thus obtaining 3× concentrated compounds working solution. In columns 1-2 and 23-24 the control wells were added. In particular, dose response curves of a reference control agonist were included in column 1 and 24 as reference control agonist (Reference control agonists used include Human TREM2 polyclonal Antibody AF1828: R&D Systems; Human TREM2 monoclonal Antibody MAB1828: R&D Systems). The dose response curves were tested starting at 30 μM, dilution step 1:6. Both “source” compound plate and “destination” compound plate were barcoded and a relationship between the two plates was thus generated.
HEK293/DAP12+TREM2 cells were cultured in EMEM medium supplemented with IX Penicillin/Streptomycin (BIOWHITTAKER_cat.DE17-602E), ULTRAGLUTAMINE I 200 mM, 10% Fetal Bovine Serum plus antibiotics referred to as “HEK293 Culture Medium”. The day before the experiment, cells were detached by gentle wash with DPBS, followed by 5 min incubation at 37° C. with Trypsin solution. Cells were then diluted in HEK293 Culture Medium without antibiotics, counted and seeded into 384-well poly-D-Lysine coated microplates black/clear bottom (GREINER 781946) at a density of 10,000 cells/well in 25 μL/well by the use of a MATRIX WellMate dispenser. Plates were placed into a humidified cell culture incubator at 37° C. with 5% CO2 until the experimental day. 20-24 hours after seeding mature medium was removed and replaced with 10 μL/well of EMEM cell medium supplemented with 0.1% Pluronic F-68 non-ionic surfactant (Thermofisher, 24040032), referred to as “Assay Buffer”, using the CyBi®-Well instrument. Then 5 μL/well of Assay Buffer containing 3× concentrated test compounds or the reference control agonist (in 0.5% final DMSO concentration) were added to the cells with the CyBi®-Well instrument. Cell plates were incubated for 30 min into a humidified cell culture incubator at 37° C. with 5% CO2·, then the medium was removed by manually discard. 20 μL/well of lysis buffer were dispensed using the CyBi®-Well instrument and plates were incubated for 10 min at room temperature on a plate shaker (350 rpm). Then, 10 μL/well of lysate were transferred to the Alpha plates. The CyBi®-Well instrument was used to dispense 5 μL/well of AlphaLISA Acceptor Bead Solution in IX Immunoassay buffer (Perkin Elmer AL000F). Then the plates were sealed with Heat sealing foil, shaked for 2 minutes (350 rpm) and incubated for 1 hour at room temperature.

T1 sequence (Q9NZC2 19-230): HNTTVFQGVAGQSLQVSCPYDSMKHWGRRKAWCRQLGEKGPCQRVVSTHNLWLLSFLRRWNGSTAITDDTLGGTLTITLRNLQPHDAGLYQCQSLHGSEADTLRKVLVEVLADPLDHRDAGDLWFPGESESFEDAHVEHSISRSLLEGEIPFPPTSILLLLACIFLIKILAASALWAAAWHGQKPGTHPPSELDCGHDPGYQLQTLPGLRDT
T1 sequence (O43914 22-113 partner): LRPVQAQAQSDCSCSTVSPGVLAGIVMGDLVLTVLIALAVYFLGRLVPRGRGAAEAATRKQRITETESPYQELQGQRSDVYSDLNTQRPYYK

| SMILES | Emax (HEK293, read-out: Emax) [%] | EC50 [nM] | Emax |
| --- | --- | --- | --- |
| Cc1nc2c(C3CCC(C)CC3)nc(N3CCOC(c4cnn(C)c4)C3)nc2c(=O)n1C (single isomer, unassigned) [Example 71A] | 75 to 110 | 10 to 100 |  |
| Cc1nc2c(nc(N3CCO[C@@H](c4cnn(C)c4)C3)nc2[C@H]2CC[C@H](C)CC2)c(=O)n1C (single isomer, unassigned) [Example 71B] |  | 10 to 100 | + (<75%) |
| Cc1nc2c(-c3ccc(C(F)(F)F)nc3)nc(N3CCC(F)(F)[C@H](c4cnn(C)c4)C3)nc2c(=O)n1C (single isomer, unassigned) [Example 92] | < 75 | 10 to 100 |  |
| Cc1nc2c(-c3ccc(C(F)(F)F)nc3)nc(N3CCC(F)(F)[C@@H](c4cnn(C)c4)C3)nc2c(=O)n1C (single isomer, unassigned) [Example 93] | 75 to 110 | 10 to 100 |  |
| Cc1cc([C@H]2C[C@@H](c3nc(-c4ccc(Cl)cc4F)c4nc(C)n(C)c(=O)c4n3)CCO2)ccn1 (single isomer, unassigned) [Example 94] | 75 to 110 | 1 to 10 |  |
| Cc1cc([C@H]2C[C@H](c3nc(-c4ccc(Cl)cc4F)c4nc(C)n(C)c(=O)c4n3)CCO2)ccn1 (single isomer, unassigned) [Example 95] | < 75 | 100 to 1000 |  |

Results, then the compound that gave them:

| Emax (HEK293, read-out: Emax) [%] | EC50 [nM] | Emax | SMILES |
| --- | --- | --- | --- |
| < 75 | > 1000 |  | Cc1nc2c(-c3ccc(C(F)(F)F)nc3)nc([C@@H]3CCO[C@H](c4cnn(C)c4)C3)nc2c(=O)n1C (single isomer, unassigned) [Example 88A] |
| < 75 | > 1000 |  | Cc1nc2c(-c3ccc(C(F)(F)F)nc3)nc([C@H]3CCO[C@@H](c4cnn(C)c4)C3)nc2c(=O)n1C (single isomer, unassigned) [Example 88B] |
| 75 to 110 | 10 to 100 |  | Cc1nc2c(-c3ccc(Cl)cc3F)nc(N3C[C@H](c4cnn(C)c4)OC(C)(C)C3)nc2c(=O)n1C (single isomer, unassigned) [Example 89B] |
| 75 to 110 | 10 to 100 |  | Cc1nc2c(-c3cc(F)c(F)cc3F)nc([C@@H]3CCO[C@H](c4cnn(C5CC5)c4)C3)nc2c(=O)n1C (single isomer, unassigned) [Example 97A] |
| < 75 | > 1000 |  | Cc1nc2c(-c3cc(F)c(F)cc3F)nc([C@H]3CCO[C@@H](c4cnn(C5CC5)c4)C3)nc2c(=O)n1C (single isomer, unassigned) [Example 97B] |
| < 75 | 10 to 100 |  | Cc1nc2c(-c3ccc(C(F)(F)F)nc3)nc([C@@H]3CCO[C@H](c4cnn(C5CC5)c4)C3)nc2c(=O)n1C (single isomer, unassigned) [Example 98A] |
| < 75 | > 1000 |  | Cc1nc2c(-c3ccc(C(F)(F)F)nc3)nc([C@H]3CCO[C@@H](c4cnn(C5CC5)c4)C3)nc2c(=O)n1C (single isomer, unassigned) [Example 98B] |
| 75 to 110 | 10 to 100 |  | Cc1nc2c(-c3ccc(C(F)(F)F)cc3F)nc(N3C[C@@H](c4cnn(C)c4)OC(C)(C)C3)nc2c(=O)n1C (single isomer, unassigned) [Example 100A] |
| < 75 | 100 to 1000 |  | Cc1nc2c(-c3ccc(C(F)(F)F)cc3F)nc(N3C[C@H](c4cnn(C)c4)OC(C)(C)C3)nc2c(=O)n1C (single isomer, unassigned) [Example 100B] |
| 75 to 110 | 10 to 100 |  | Cc1nc2c(-c3cc(F)c(F)cc3F)nc(N3C[C@@H](c4cnn(C)c4)OC(C)(C)C3)nc2c(=O)n1C (single isomer, unassigned) [Example 101A] |
| < 75 | > 1000 |  | Cc1nc2c(-c3cc(F)c(F)cc3F)nc(N3C[C@H](c4cnn(C)c4)OC(C)(C)C3)nc2c(=O)n1C (single isomer, unassigned) [Example 101B] |
| 75 to 110 | 10 to 100 |  | Cc1nc2c(-c3ccc(C(F)(F)F)nc3)nc(N3C[C@@H](c4cnn(C)c4)OC(C)(C)C3)nc2c(=O)n1C (single isomer, unassigned) [Example 102A] |

Source: patent publication US20260200926A1, “TREM2 MODULATORS” (Muna Therapeutics ApS, priority 2022, published 2026)
